Assays:
[1] = Inhibitory activity (RA1) against Prostaglandin G/H synthase 1 was calculated relative to aspirin
[2] = Inhibitory activity (RA2) against Prostaglandin G/H synthase 2 was calculated relative to aspirin

Row | relative activity vs aspirin [1] | relative activity vs aspirin [2] | SMILES
1 | 0.37 | 0.5 | O=C1CCC(N2C(=O)c3ccccc3C2=O)C(=O)N1 (racemic) [(+/-)-thalidomide]
2 | 0.2 | 0.67 | Cc1cc(C)c(C)c(N2C(=O)c3ccccc3C2=O)c1C [2-(2,3,5,6-Tetramethyl-phenyl)-isoindole-1,3-dione]
3 | 0.33 | 1.18 | Cc1cc(C)c(C)c(N2C(=O)c3ccccc3C2=O)c1 [2-(2,3,5-Trimethyl-phenyl)-isoindole-1,3-dione]
4 | 0.44 | 3.81 | O=C1c2ccccc2C(=O)N1c1c[nH]c(=O)[nH]c1=O [2-(2,4-Dioxo-1,2,3,4-tetrahydro-pyrimidin-5-yl)-isoindole-1,3-dione]
5 | 0.85 | 1.21 | O=C1NCCCC1N1C(=O)c2ccccc2C1=O (centres undefined) [2-(2-Oxo-piperidin-3-yl)-isoindole-1,3-dione]
6 | 95.2 | 38.5 | Cc1cc(C)cc(-n2c(O)cc3ccccc3c2=O)c1 [2-(3,5-Dimethyl-phenyl)-4H-isoquinoline-1,3-dione]
7 | 7.4 | 13.2 | Cc1cc(C)cc(N2C(=O)c3ccccc3C2=O)c1 [2-(3,5-Dimethyl-phenyl)-isoindole-1,3-dione]
8 | 10.2 | 3.57 | COc1cc(OC)nc(-n2c(O)cc3ccccc3c2=O)n1 [2-(4,6-Dimethoxy-pyrimidin-2-yl)-4H-isoquinoline-1,3-dione]
9 | 12.5 | 6.67 | Cc1cc(C)nc(-n2c(O)cc3ccccc3c2=O)c1 [2-(4,6-Dimethyl-pyridin-2-yl)-4H-isoquinoline-1,3-dione]
10 | 3.85 | 8.33 | Cc1cc(C)nc(-n2c(O)cc3ccccc3c2=O)n1 [2-(4,6-Dimethyl-pyrimidin-2-yl)-4H-isoquinoline-1,3-dione]
11 | 21.7 | 10 | COc1cc(C)nc(-n2c(O)cc3ccccc3c2=O)n1 [2-(4-Methoxy-6-methyl-pyrimidin-2-yl)-4H-isoquinoline-1,3-dione]
12 | 0.4 | 0.1 | C[C@@]1(N2C(=O)c3cccc([N+](=O)[O-])c3C2=O)CCC(=O)NC1=O [2-((R)-3-Methyl-2,6-dioxo-piperidin-3-yl)-4-nitro-isoindole-1,3-dione]
13 | 0.54 | 1.51 | C[C@@]1(N2C(=O)c3ccc([N+](=O)[O-])cc3C2=O)CCC(=O)NC1=O [2-((R)-3-Methyl-2,6-dioxo-piperidin-3-yl)-5-nitro-isoindole-1,3-dione]
14 | 0.29 | 0.73 | C[C@@]1(N2C(=O)c3ccccc3C2=O)CCC(=O)NC1=O [2-((R)-3-Methyl-2,6-dioxo-piperidin-3-yl)-isoindole-1,3-dione]
15 | 0.17 | – | C[C@@]1(N2C(=O)c3cccc(N)c3C2=O)CCC(=O)NC1=O [4-Amino-2-((R)-3-methyl-2,6-dioxo-piperidin-3-yl)-isoindole-1,3-dione]
16 | 0.12 | – | C[C@@]1(N2C(=O)c3ccc(N)cc3C2=O)CCC(=O)NC1=O [5-Amino-2-((R)-3-methyl-2,6-dioxo-piperidin-3-yl)-isoindole-1,3-dione]

Row | SMILES | relative activity vs aspirin [1] | relative activity vs aspirin [2]
17 | O=C1CCN(N2C(=O)c3ccccc3C2=O)C(=O)N1 [2-(2,4-Dioxo-tetrahydro-pyrimidin-1-yl)-isoindole-1,3-dione] | 0.6 | 0.9
18 | O=C1c2ccccc2C(=O)N1CCn1ccc(=O)[nH]c1=O [2-[2-(2,4-Dioxo-3,4-dihydro-2H-pyrimidin-1-yl)-ethyl]-isoindole-1,3-dione] | 1.23 | 0.65

— BindingDB's records for doi:10.1016/s0960-894x(02)00084-7 (The University of Tokyo, 2002)
